This note sets out measurements from US20220370553A1, “PREBIOTIC-INDUCED ANTI-TUMOR IMMUNITY” (Sanford Burnham Prebys Medical Discovery Institute, priority 2019, published 2022).

Experiment [1] deals with Yumm1.5 tumors. Description: Growth of Yumm1.5 melanoma tumors in prebiotic-fed mice. Type of experiment: in vivo, C57BL/6 mice. Particulars: mucin 3% in drinking water or inulin 15% w/w chow from 2 weeks prior to inoculation of 1×10^6 Yumm1.5 cells. An excerpt:
(§1) FIG. 2B, Quantification of tumor-infiltrating effector (CD44hi) CD4+, CD8+ and CD45+ T cells from mice treated as in FIG. 2A (n=10). FIG. 2C, Quantification of tumor-infiltrating, IFN-g-producing CD4+ T cells from mice treated as in FIG. 2A (n=10). FIG. 2D, Quantification of tumor-infiltrating total DCs and subsets in mice treated as in FIG. 2A (n=10). FIG. 2E, MFI of MHC class I and MHC class II on DCs from the tumors of mice treated as in FIG. 2A (n=10). […] Graphs show the mean s.e.m. *P<0.05, **P<0.005, ***P<0.001,****P<0.0001 by two-way ANOVA with Tukey's correction (A) and by one-way ANOVA with Tukey's correction (B-E).

The subject of experiment [2] is MC-38 mouse colorectal cancer cells. Nature of the experiment: Growth of MC-38 colorectal cancer tumors in prebiotic-fed mice. Type of experiment: in vivo, C57BL/6 mice. To be noted: 3% mucin in drinking water or 15% inulin diet from two weeks prior to inoculation. An excerpt: (§2) MC-38 mouse colorectal cancer cells (1×10^6) were inoculated, and diets were continued after inoculation.

The next experiment concerns Bifidobacterium spp. Description: Anaerobic fecal cultures with 1% prebiotic, 16S rDNA quantification. Type of experiment: cell-based, human. To be noted: in two of these cultures. The protocol:
(§3) Fecal samples derived from 12 healthy human subjects were cultivated in the presence or absence of 1% prebiotic. 16S rDNA sequences corresponding to Bifidobacterium, Bacteroides and Akkermansia muciniphila were quantified. Data are representative of three independent experiments. Graphs show the mean±s.e.m. *P<0.05, **P<0.005, ***P<0.001, ****P<0.0001 by one-way ANOVA with Tukey's correction.
(§4) Anaerobic fecal cultures. […] Anaerobic cultures (9% H2, 81% N2) were grown statically for 3-4 days at 37° C. and grown to approximate saturation.
(§5) Chemically-defined medium (CDM). CDM contains 50 mM HEPES, 2.2 mM KH2PO4, 10 mM Na2HPO4, 60 mM NaHCO3, 4 mM of each amino acid, except leucine (15 mM), 10 mL ATCC, Trace Mineral Supplement. CDM contained nucleoside bases (100 mg/L), inosine, xanthine, adenine, guanine, cytosine, thymidine and uracil (400 mg/L). CDM contained choline (100 mg/L), ascorbic acid (500 mg/L), lipoic acid (2 mg/L), hemin (1.2 mg/L) and myo-inositol (400 mg/L). Resazurin (1 mg/L) was added to visually monitor dissolved oxygen. The pH of the media was adjusted to 7.4.
(§6) Fecal samples derived from 12 healthy, vegetarian human subjects were cultivated in a chemically-defined medium the presence or absence of 1% prebiotic. Anaerobic cultures (9% H2, 81% N2) were grown statically for 3-4 days at 37° C. and grown to approximate saturation.

The subject of the next experiment is CD8+ T cells. Nature of the experiment: qRT-PCR of cytokine and chemokine mRNAs in CD8+ T cells in vitro. The experiment is classed as cell-based, mice. Particulars: 0.05 or 0.5 mg/ml in vitro. The text has this:
Data are representative of two independent experiments. Graphs show the mean±s.e.m. *P<0.05, **P<0.005, ***P<0.001, ****P<0.0001 one-way ANOVA with Tukey's correction.
RNA extraction and qRT-PCR analyses. Total RNA was extracted from tumor samples individually using the RNeasy Fibrous Tissue Midi kit (QIAGEN) or cells treated as indicated using High Capacity Reverse Transcriptase kits (Invitrogen) according to the manufacturer's protocol. Purity and concentration of extracted RNA were checked and quantified by reading at 260 and 280 nm in a NanoDrop spectrophotometer (Thermo Fisher). The qRT-PCR analyses were performed using Syber Green RT-PCR kits (Invitrogen) on a Bio-Rad CFX Connect Real-Time system. Expression levels normalized to 18S or Tubb5 controls.
On the technique in general: Real-time PCR tracks product formation cycle by cycle.

In another experiment the test system is gut microbiota. Type of experiment: in vivo, C57BL/6 mice. The protocol: Bacterial DNA extraction and 16S library preparation. […] Mouse fecal pellets were frozen on dry ice, and stored at −80° C. Bacterial DNA was extracted using the QIAmp Fast DNA Stool Mini Kit (Qiagen). To ensure efficient cell lysis, a 5-min bead-beating step using a Mini-Beadbeater-16 was included (Biospec Products, OK, USA). Library preparation for the Illumina MiSeq platform was performed by amplification of the V3-V4 region of the bacterial 16S ribosomal DNA gene using
C. Adapter and barcode sequences for dual indices were used as described by Illumina. PCR clean up steps were performed with QIAquick 96-PCR Clean up kit (Qiagen, Germany), and library quantification was performed using a KAPA Library Quantification Kit for Illumina platforms (KAPA Biosystems, MA, USA). An Experion Automated Gel Electrophoresis System (Bio-Rad, CA, USA) was used to measure the DNA concentration and purity of the pooled libraries. The 16S libraries were sequenced at Novagene (Beijing, China) and the SBP sequencing Core.
16S sequencing data processing. The original FASTQ files from Illumina 250 basepair paired-end sequencing of the samples were processed using a novel 16S amplicon sequencing pipeline HiMap (http://github.com/taolonglab/himap; BioRxiv 565572). The output of HiMap is Operational Strain Unit (OSU) which contains one or more bacterial strains that best match the 16S sequence and cannot be further distinguished. The percentage similarity between the 16S sequence and the aligned region of 16S rRNA genes of the strains in the OSU is indicated. OSUs mapped to the same strains are grouped together (adding read counts) if percentage similarities are within 3%. Read counts are converted into relative abundance as described in HiMap. Log 10-transformed relative abundances were used for comparisons between samples under different experimental conditions.

For experiment [3], the system named is MC-38 mouse colorectal cancer cells. Nature of the experiment: Flow cytometry of tumor-infiltrating immune cells in MC-38 tumors. The experiment is classed as in vivo, C57BL/6 mice. Here is the method:
(§7) Tumor digestion. Tumors were excised, minced, and digested with 1 mg/ml collagenase D (Roche) and 100 μg/ml DNase I (Sigma) at 37° C. for 1 h. Digests were then passed through a 70-μm cell strainer to generate a single-cell suspension. The cells were washed twice with PBS containing 2 mM EDTA, and then stained for flow cytometry.
(§8) Flow cytometry. Tumor-derived single-cell suspensions were washed twice with FACS staining buffer, fixed for 15 min with 1% formaldehyde in PBS, washed twice, and resuspended in FACS staining buffer. For intracellular cytokine staining, cells were resuspended in complete RPMI-1640 (containing 10 mM HEPES, 1% non-essential amino acids and L-glutamine, 1 mM sodium pyruvate, 10% heat-inactivated fetal bovine serum (FBS), and antibiotics) supplemented with 50 U/mL IL-2 (NCI), […] brefeldin A (BFA, Sigma), and incubated with phorbol myristate acetate (10 ng/ml) and ionomycin (0.5 μg/ml) at 37° C. The cells were then fixed and permeabilized using a Cytofix/Cytoperm Kit (BD Biosciences) before staining. Antibodies to the following proteins were used: CD45.2 (104), CD8a (53-6.7), CD4 (GK1.5), CD44 (IM7), TNF-α (MP6-XT22), IFN-γ (XMG1.2), CD11c (N418), CD11b (M1/70), MHC class II (M5/114.15.2), PDCA (129c1), and B220 (RA3-6B2) from BioLegend, and antibodies to IL-2 (JES6-5H4) and MHC class I (AF6-88.5.5.3) from eBioscience. All data were collected on an LSRFortessa (BD Biosciences) and analyzed using FlowJo Software (Tree Star).
as §2
(In flow cytometry, cells or beads pass a laser one at a time.)

The test system of experiment [4] is intestinal epithelial cells. Nature of the experiment: qRT-PCR of inflammatory mediators in intestinal epithelial cells in vivo. More on the design: species or system C57BL/6 mice. To be noted: inulin 15% in chow, naïve mice, 2 weeks.
From the text: FIG. 15 illustrates effects of mucin and inulin on expression of inflammatory mediators by intestinal epithelial cells in vivo. qRT-PCR data are shown for mRNA levels of the indicated inflammatory mediators in intestinal epithelial cells from mucin or inulin-treated mice (n=4). Data are representative of two independent experiments. Graphs show the mean s.e.m. *P<0.05, **P<0.005, one-way ANOVA with Tukey's correction.
Isolation of intestinal epithelial cells. A 10 cm section of mouse small intestine was opened longitudinally, minced, washed in 150 mM NaCl containing 1 mM DTT, and then resuspended in dissociation buffer (130 mM NaCl, 10 mM EDTA, 10 mM Hepes [pH 7.4], 10% FCS, and 1 mM DTT). The sections were incubated at 37° C. for 30 min with vigorous shaking to release the epithelial cells from the lamina propria. The epithelial cell suspension was then carefully aspirated, centrifuged, and washed in ice-cold PBS.
The effect of mucin and inulin on intestinal epithelial cells was evaluated in vivo. To this end, mucin (3% in drinking water) or inulin (15% in chow) were administered to naïve C57BL/6 mice for 2 weeks. Intestinal epithelial cells were isolated from small intestine and were assessed for the level of select cytokines and chemokines that are implicated in the activation of the immune response and anti-tumor immunity.
Another experiment concerns Bacteroides spp. Description: Anaerobic fecal cultures with 1% prebiotic, 16S rDNA quantification. Particulars: fecal cultures of 12 healthy human subjects, 3-4 days at 37° C. Type of experiment: cell-based. Here is the method: as §3, §4, §5, §6
For experiment [5], the system named is Yumm1.5 tumors. Nature of the experiment: Flow cytometry of tumor-infiltrating immune cells in Yumm1.5 tumors. Type of experiment: in vivo, C57BL/6 mice. To be noted: 20 days following tumor inoculation.
From the text: as §1, §7, §8

The subject of experiment [6] is N-Ras mutant melanoma tumor cells (MaNRAS1). Nature of the experiment: Growth of N-Ras mutant melanoma tumors with prebiotics with or without MEKi. The experiment is classed as in vivo, C57BL/6 mice.
Protocol: FIG. 7A C57BL/6 mice were injected (s.c.) with NRAS^Q61K mouse melanoma cells (1×10^6) (n=10). The mice were administered with either a control diet alone, or one supplemented with mucin (3%) in drinking water or inulin (15%) in chow starting 14 days prior to tumor inoculation. When tumors reached a volume of 10-20 mm^2, mice were treated with MEKi (PD325901) administered by gavage (10 mg/kg, daily), alone or in combination with inulin or mucin, as indicated. Tumor volume was assessed every 4 days. […] Data are representative of two independent experiments. Graphs show the mean±s.e.m. *P<0.05, **P<0.005, ***P<0.001, ****P<0.0001 by two-way ANOVA with Tukey's correction (A) or one-way ANOVA with Tukey's correction (B-D).
Animals and tumor models. […] Male 6-8-week-old mice were used for all experiments. […] All mice were fed an autoclaved chow diet ad libitum (LabDiet 5K67, Purina Foods). […] Mouse selection for experiments was not formally randomized or blinded. For tumor growth experiments, mice were injected subcutaneously (s.c.) with 1×10^6 tumor cells. Tumor size was measured twice a week for calculation of tumor volume. Tumors were weighed at the time of excision.
Mucin and inulin treatment. For mucin treatment, C57BL/6 mice were subjected to control or water supplemented with 3% mucin (Lee Biosolutions) prior to (14 days) and during tumor inoculation. Water was changed every other day. For inulin treatment, mice were received a diet (TD. 94048, AIN-93M, Purified Diet, ENVIGO) enriched with long-chain inulin by substituting all of sucrose and 5% of corn starch in the control diet or a modified diet (TD. 160256, Modified AIN-93M, Diet w 15% inulin, ENVIGO) prior to (14 days) and during tumor inoculation. Diets were changed 2 times a week.
Experiments were conducted to determine whether prebiotics impacted the effectiveness of MEK inhibitor (MEKi) treatment on tumor growth control and treatment resistance.

Regarding inulin, the melanoma tumor growth entry with Yumm1.5 tumors [1] is “attenuated”. In experiment [2], the “growth of colon cancer MC-38 tumors” value was “attenuated”. Besides, the Bifidobacterium spp. entry in the experiment on Bifidobacterium spp. was “strong increase”. Moreover, in the experiment with CD8+ T cells, the “expression of multiple pro-inflammatory mediators in CD8+ T cells” value is recorded as “increased expression”. Besides, in the experiment with gut microbiota (in the absence of MEKi), the “phylotype group related to Parasutterella excrementihominis” value is reported as “notable increase” and the “taxa increased in relative abundance” value is given as “primarily increased the relative abundance of taxa mapped in or near Clostridium cluster XIVa”. Besides, the Akkermansia muciniphila result in the experiment on gut microbiota (inulin+MEKi treated mice compared to inulin alone) is given as “robustly enriched”. Besides, in experiment [3], the “CD4+ or CD8+ T cells, CD45+ cells, cytokine production, DCs and DC subsets in tumors” value is given as “No differences”; the “anti-tumor immune responses, MHC class II and I expression on DCs” value was “enhanced”. Further, the “levels of NOD2, IL-6 and CXCL2 mRNA in intestinal epithelial cells” value in experiment [4] was “increased”. For the same compound, the “relative abundance of Bacteroides spp.” value in the experiment with Bacteroides spp. was “increased”. For the same compound, in the experiment on Yumm1.5 tumors [5], the “MHC class I and MHC class II on tumor-resident DCs” value is “higher levels”; the “dendritic cell subsets including pDCs and CD8a+ conventional DCs in tumors” value is “increased”. For the same compound, the “effector (CD44hi) CD4+ and CD8+ T cells, and CD45+ cells in tumors” value with Yumm1.5 tumors [5] (compared to control mice) is given as “enrichment”. Moreover, the “control of N-Ras mutant tumors” value in experiment [6] (in the absence of MEKi, mucin 3% in water or inulin 15% in chow) was “modestly controlled”. The “intrinsic resistance of MaN-Ras melanoma cells to MEKi” value in [6] (inulin-fed mice treated with MEKi) is on record as “delayed”.

For `O=C(NOC[C@H](O)CO)c1ccc(F)c(F)c1Nc1ccc(I)cc1F` [MEKi, PD325901, reference compound], the “N-Ras mutant tumor growth” value in experiment [6] (MEKi (PD325901) 10 mg/kg daily by gavage, alone or with prebiotic) is “effectively controlled tumor growth”.
